Test results published in patent US10233191B2, “Fused piperidine amides as modulators of ion channels” (Vertex Pharmaceuticals Incorporated, priority 2013, dated 2019).

Target: T1, NaV 1.7 (Homo sapiens, UniProt Q15858)
T1 construct: expressed in transfected cells; host or cells: HEK cells
Test: E-VIPR optical membrane potential assay with electrical stimulation
Type: cell-based
Conditions: active against one or more sodium channels; assay/subtype not specified in Table 4; read-out: IC50 Binned Activity Data
How it was run: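 HEK cells expressing human NaV1.7, loaded with CC2-DMPE/DiSBAC6(3) FRET dyes, then exposed to compounds for 20-35 min at room temperature (0.625% DMSO). Electrical stimulation applied for 9 s with 400 Hz scanning. Read-out is the background-subtracted 460/580 nm emission ratio, normalized.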

T1 sequence (Q15858 whole entry): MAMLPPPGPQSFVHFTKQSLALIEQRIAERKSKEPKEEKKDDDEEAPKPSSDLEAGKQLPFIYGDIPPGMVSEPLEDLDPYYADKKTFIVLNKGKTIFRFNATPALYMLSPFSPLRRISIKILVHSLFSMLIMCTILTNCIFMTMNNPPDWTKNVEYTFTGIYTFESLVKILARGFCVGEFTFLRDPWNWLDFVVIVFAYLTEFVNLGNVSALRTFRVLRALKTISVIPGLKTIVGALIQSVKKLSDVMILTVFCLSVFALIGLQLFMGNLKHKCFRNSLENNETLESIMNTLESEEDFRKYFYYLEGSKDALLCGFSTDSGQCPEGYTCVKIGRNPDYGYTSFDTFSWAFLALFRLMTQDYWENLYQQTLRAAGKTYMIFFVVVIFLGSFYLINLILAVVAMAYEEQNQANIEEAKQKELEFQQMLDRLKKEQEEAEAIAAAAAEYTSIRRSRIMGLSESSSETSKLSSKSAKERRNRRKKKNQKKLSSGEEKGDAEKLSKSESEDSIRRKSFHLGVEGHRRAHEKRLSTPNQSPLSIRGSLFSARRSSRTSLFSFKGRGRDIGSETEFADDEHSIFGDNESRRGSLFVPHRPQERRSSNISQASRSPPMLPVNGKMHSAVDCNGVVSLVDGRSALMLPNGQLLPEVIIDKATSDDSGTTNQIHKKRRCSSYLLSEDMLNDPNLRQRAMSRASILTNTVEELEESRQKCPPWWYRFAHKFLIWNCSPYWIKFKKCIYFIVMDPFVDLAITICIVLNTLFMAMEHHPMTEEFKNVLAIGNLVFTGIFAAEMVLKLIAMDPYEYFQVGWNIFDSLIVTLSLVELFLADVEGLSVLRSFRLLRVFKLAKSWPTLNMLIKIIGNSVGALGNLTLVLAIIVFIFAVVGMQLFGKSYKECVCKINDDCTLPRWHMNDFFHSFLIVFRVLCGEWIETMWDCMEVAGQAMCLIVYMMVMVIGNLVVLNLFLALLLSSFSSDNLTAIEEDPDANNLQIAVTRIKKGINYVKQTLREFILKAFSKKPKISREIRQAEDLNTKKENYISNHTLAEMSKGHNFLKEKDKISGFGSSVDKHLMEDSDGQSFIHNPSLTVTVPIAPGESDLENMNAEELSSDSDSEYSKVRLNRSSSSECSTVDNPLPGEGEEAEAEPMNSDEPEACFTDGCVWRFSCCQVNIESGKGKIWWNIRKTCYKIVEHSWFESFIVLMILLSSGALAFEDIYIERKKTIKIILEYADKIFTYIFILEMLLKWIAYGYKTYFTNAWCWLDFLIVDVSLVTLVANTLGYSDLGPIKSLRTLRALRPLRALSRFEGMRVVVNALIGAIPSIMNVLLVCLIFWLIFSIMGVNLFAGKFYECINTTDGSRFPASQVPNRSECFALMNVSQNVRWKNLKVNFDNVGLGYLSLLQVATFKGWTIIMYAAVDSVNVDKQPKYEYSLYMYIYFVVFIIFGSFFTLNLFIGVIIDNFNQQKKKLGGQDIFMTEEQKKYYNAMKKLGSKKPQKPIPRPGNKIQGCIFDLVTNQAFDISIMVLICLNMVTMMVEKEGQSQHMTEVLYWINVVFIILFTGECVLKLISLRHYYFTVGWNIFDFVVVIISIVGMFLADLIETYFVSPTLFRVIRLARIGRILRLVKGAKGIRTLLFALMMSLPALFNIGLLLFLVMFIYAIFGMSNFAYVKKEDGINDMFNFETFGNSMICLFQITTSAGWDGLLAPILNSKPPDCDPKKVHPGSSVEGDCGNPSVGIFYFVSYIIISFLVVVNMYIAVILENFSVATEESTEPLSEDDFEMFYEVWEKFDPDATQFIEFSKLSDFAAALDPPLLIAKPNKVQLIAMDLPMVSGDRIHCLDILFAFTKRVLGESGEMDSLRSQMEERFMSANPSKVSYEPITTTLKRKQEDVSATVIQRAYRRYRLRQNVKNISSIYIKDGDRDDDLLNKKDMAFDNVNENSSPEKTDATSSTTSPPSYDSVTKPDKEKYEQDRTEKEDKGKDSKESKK

| IC50 | Compound |
| --- | --- |
| ≤ 2000 nM | COc1cc(C(=O)N2CCC3(c4ccccn4)C(C2)C3(F)F)ccc1OCCOC(F)(F)F (stereo not shown) [Compound 260] |
| > 5000 nM | O=C(c1ccc(S(=O)(=O)C(F)F)cc1)N1CC[C@]2(c3cccc(F)c3)OCOC2C1 (stereo partly shown) [Compound 261] |
| ≤ 2000 nM | COc1nc(C(=O)N2CC[C@]3(c4cccc(F)c4F)OCOC3C2)ccc1OCC(F)(F)C(F)F (stereo partly shown) [Compound 262] |
| ≤ 2000 nM | COc1nc(C(=O)N2CC[C@]3(c4cccc(F)c4F)OCOC3C2)ccc1OC(C)C(F)(F)F (stereo partly shown) [Compound 263] |
| ≤ 2000 nM | COc1nc(C(=O)N2CC[C@]3(c4cccc(F)c4)OCOC3C2)ccc1OC(C)C(F)(F)F (stereo partly shown) [Compound 264] |
| ≤ 2000 nM | COc1nc(C(=O)N2CC[C@]3(c4ccccc4)OCOC3C2)ccc1OCC1(C(F)(F)F)CC1 (stereo partly shown) [Compound 265] |
| ≤ 2000 nM | COc1cc(C(=O)N2CC[C@@]3(c4ccccn4)CC3C2)ccc1OCCOC(F)(F)F (stereo partly shown) [Compound 266] |
| ≤ 2000 nM | COc1nc(C(=O)N2CC[C@]3(c4cccc(C(F)(F)F)n4)OCOC3C2)ccc1OCC1CC(F)(F)C1 (stereo partly shown) [Compound 267] |
| ≤ 2000 nM | COc1nc(C(=O)N2CC[C@]3(c4cccc(F)c4)OCOC3C2)ccc1OCC1(C(F)(F)F)CC1 (stereo partly shown) [Compound 268] |
| ≤ 2000 nM | [2H]C1([2H])OC2CN(C(=O)c3ccc(OCC4(C(F)(F)F)CC4)c(OC)n3)CC[C@]2(c2cc(F)cc(F)c2)O1 (stereo partly shown) [Compound 269] |
| ≤ 2000 nM | COc1nc(C(=O)N2CC[C@]3(c4cccc(Cl)c4)OCOC3C2)ccc1OCC1(C(F)(F)F)CC1 (stereo partly shown) [Compound 270] |
| ≤ 2000 nM | COc1nc(C(=O)N2CC[C@]3(c4cccc(F)c4F)OCOC3C2)ccc1OCC1(C(F)(F)F)CC1 (stereo partly shown) [Compound 271] |
| ≤ 2000 nM | COc1nc(C(=O)N2CC[C@]3(c4cccc(C(F)(F)F)n4)OCOC3C2)ccc1OCCOC(F)(F)F (stereo partly shown) [Compound 272] |
| ≤ 2000 nM | COc1cc(C(=O)N2CC[C@]3(c4cccc(C(F)(F)F)n4)OCOC3C2)ccc1OC(C)C(F)(F)F (stereo partly shown) [Compound 273] |
| ≤ 2000 nM | COc1cc(C(=O)N2CC[C@]3(c4cccc(C(F)(F)F)n4)OCOC3C2)ccc1OCCC(F)(F)F (stereo partly shown) [Compound 274] |
| ≤ 2000 nM | COc1cc(C(=O)N2CC[C@]3(c4cccc(C(F)(F)F)n4)OCOC3C2)ccc1OCC1CC(F)(F)C1 (stereo partly shown) [Compound 275] |
| > 5000 nM | COc1cc(C(=O)N2CC[C@]3(c4ccccn4)COC[C@@H]3C2)ccc1OCCOC(F)(F)F [Compound 276] |
| ≤ 2000 nM | COc1cc(C(=O)N2CC[C@]3(c4ccccn4)C(=O)OCC3C2)ccc1OCCOC(F)(F)F (stereo partly shown) [Compound 277] |
| ≤ 2000 nM | COc1cc(C(=O)N2CC[C@@]3(c4ccccn4)COCC3C2)ccc1OCCOC(F)(F)F (stereo partly shown) [Compound 278] |
| ≤ 2000 nM | [2H]C1([2H])OC2CN(C(=O)c3ccc(OCC4CC(F)(F)C4)c(OC)n3)CC[C@]2(c2cccc(F)c2)O1 (stereo partly shown) [Compound 279] |
| ≤ 2000 nM | [2H]C1([2H])OC2CN(C(=O)c3ccc(OCC4CC(F)(F)C4)c(OC)n3)CC[C@]2(c2cc(F)cc(F)c2)O1 (stereo partly shown) [Compound 280] |
| ≤ 2000 nM | COc1nc(C(=O)N2CC[C@]3(c4cccc(F)c4F)OCOC3C2)ccc1OCC1CC(F)(F)C1 (stereo partly shown) [Compound 281] |
| ≤ 2000 nM | COc1cc(C(=O)N2CC[C@]3(c4cccc(F)c4F)OCOC3C2)ccc1OCCC(F)(F)F (stereo partly shown) [Compound 282] |
| ≤ 2000 nM | COc1cc(C(=O)N2CC[C@]3(c4cccc(Cl)c4)OCOC3C2)ccc1OCCOC(F)(F)F (stereo partly shown) [Compound 283] |
| ≤ 2000 nM | [2H]C1([2H])OC2CN(C(=O)c3ccc(OCC4CCC4)c(OC)n3)CC[C@]2(c2cccc(F)c2)O1 (stereo partly shown) [Compound 284] |
| ≤ 2000 nM | COc1cc(C(=O)N2CCC3(c4ccccn4)CC3C2)ccc1OCCOC(F)(F)F (stereo not shown) [Compound 285] |
| ≤ 2000 nM | COc1cc(C(=O)N2CC[C@]3(c4cc(F)ccc4F)OCOC3C2)ccc1OC(C)C(F)(F)F (stereo partly shown) [Compound 286] |
| ≤ 2000 nM | COc1cc(C(=O)N2CC[C@]3(c4cc(F)ccc4F)OCOC3C2)ccc1OCCC(F)(F)F (stereo partly shown) [Compound 287] |

| IC50 | Compound |
| --- | --- |
| ≤ 2000 nM | COc1cc(C(=O)N2CC[C@]3(c4cc(F)ccc4F)OCOC3C2)ccc1OCC1CC(F)(F)C1 (stereo partly shown) [Compound 288] |
| ≤ 2000 nM | COc1nc(C(=O)N2CC[C@]3(c4cc(F)ccc4F)OCOC3C2)ccc1OCCOC(F)(F)F (stereo partly shown) [Compound 289] |
| > 5000 nM | COc1cc(C(=O)N2CC[C@]3(c4cccc(C#N)c4)OCOC3C2)ccc1OC(C)C(F)(F)F (stereo partly shown) [Compound 290] |
| ≤ 2000 nM | COc1cc(C(=O)N2CC[C@]3(c4cccc(C#N)c4)OCOC3C2)ccc1OCC1CC(F)(F)C1 (stereo partly shown) [Compound 291] |
| ≤ 2000 nM | COc1nc(C(=O)N2CC[C@]3(c4cccc(C#N)c4)OCOC3C2)ccc1OCCOC(F)(F)F (stereo partly shown) [Compound 292] |
| ≤ 2000 nM | COc1cc(C(=O)N2CC[C@]3(c4cccc(C#N)c4)OCOC3C2)ccc1OCCOC(F)(F)F (stereo partly shown) [Compound 293] |
| ≤ 2000 nM | O=C(c1cnc(OCCOC(F)(F)F)c(Cl)c1)N1CC[C@]2(c3ccccn3)OCOC2C1 (stereo partly shown) [Compound 294] |
| ≤ 2000 nM | O=C(c1cnc(OCCOC(F)(F)F)c(Cl)c1)N1CC[C@]2(c3ccccc3)OCOC2C1 (stereo partly shown) [Compound 295] |
| 2000 to 5000 nM | O=C(c1cnc(OCCOC(F)(F)F)c(Cl)c1)N1CCC2(c3ccc(F)cc3)CC2C1 (stereo not shown) [Compound 296] |
| > 5000 nM | COc1cc(C(=O)N2CCC3(c4ccc(F)cc4)CC3C2)ccc1OC(C)C(F)(F)F (stereo not shown) [Compound 297] |
| ≤ 2000 nM | COc1cc(C(=O)N2CCC3(c4ccc(F)cc4)CC3C2)ccc1OCC1CC(F)(F)C1 (stereo not shown) [Compound 298] |
| ≤ 2000 nM | COc1nc(C(=O)N2CCC3(c4ccc(F)cc4)CC3C2)ccc1OCCOC(F)(F)F (stereo not shown) [Compound 299] |
| ≤ 2000 nM | COc1cc(C(=O)N2CCC3(c4ccc(F)cc4)CC3C2)ccc1OCCOC(F)(F)F (stereo not shown) [Compound 300] |
| ≤ 2000 nM | O=C(c1ccc(OCCOC(F)(F)F)c(Cl)c1)N1CCC2(c3ccc(F)cc3)CC2C1 (stereo not shown) [Compound 301] |
| ≤ 2000 nM | [2H]C1([2H])OC2CN(C(=O)c3ccc(OCCOC(F)(F)F)c(OC)c3)CC[C@]2(c2ccccc2)O1 (stereo partly shown) [Compound 302] |
| ≤ 2000 nM | [2H]C1([2H])OC2CN(C(=O)c3ccc(OCCOC(F)(F)F)c(C)n3)CC[C@]2(c2ccccn2)O1 (stereo partly shown) [Compound 303] |
| ≤ 2000 nM | [2H]C1([2H])OC2CN(C(=O)c3ccc(OCCOC(F)(F)F)c(Cl)c3)CC[C@]2(c2ccccn2)O1 (stereo partly shown) [Compound 304] |
| ≤ 2000 nM | [2H]C1([2H])OC2CN(C(=O)c3ccc(OCCOC(F)(F)F)c(OC)c3)CC[C@]2(c2ccccn2)O1 (stereo partly shown) [Compound 305] |
| ≤ 2000 nM | [2H]C1([2H])OC2CN(C(=O)c3ccc(OCCOC(F)(F)F)c(C)n3)CC[C@]2(c2cccc(F)c2)O1 (stereo partly shown) [Compound 306] |
| ≤ 2000 nM | [2H]C1([2H])O[C@@H]2CN(C(=O)c3ccc(OC(C)C(F)(F)F)c(OC)c3)CC[C@]2(c2cccc(F)c2)O1 (stereo partly shown) [Compound 307] |
| ≤ 2000 nM | [2H]C1([2H])OC2CN(C(=O)c3ccc(OCCOC(F)(F)F)c(C)n3)CC[C@]2(c2cc(F)cc(F)c2)O1 (stereo partly shown) [Compound 308] |
| ≤ 2000 nM | [2H]C1([2H])OC2CN(C(=O)c3ccc(OCCOC(F)(F)F)c(OC)n3)CC[C@]2(c2cc(F)cc(F)c2)O1 (stereo partly shown) [Compound 309] |
| ≤ 2000 nM | COc1cc(C(=O)N2CC[C@]3(c4ccccn4)OC(C)(C)OC3C2)ccc1OCCOC(F)(F)F (stereo partly shown) [Compound 310] |
| ≤ 2000 nM | CC(Oc1ccc(C(=O)N2CC[C@]3(c4ccccn4)OCOC3C2)cc1C(F)(F)F)C(F)(F)F (stereo partly shown) [Compound 311] |
| ≤ 2000 nM | O=C(c1ccc(OCC2CC(F)(F)C2)c(C(F)(F)F)c1)N1CC[C@]2(c3ccccn3)OCOC2C1 (stereo partly shown) [Compound 312] |
| 2000 to 5000 nM | CC(F)(F)COc1ccc(C(=O)N2CC[C@]3(c4ccccn4)OCOC3C2)cc1C(F)(F)F (stereo partly shown) [Compound 313] |
| ≤ 2000 nM | COc1cc(C(=O)N2CC[C@]3(c4cccc(OCC(C)C)n4)OCOC3C2)ccc1OCCOC(F)(F)F (stereo partly shown) [Compound 314] |
